Measured values as given in patent US20050075361A1 (priority 2002, published 2005).
Where two headings read alike, the source gives them in different places.

Columns and labels:
[1] = cited from earlier work
[2] = system: male Sprague-Dawley rats; details: rat, in vivo
[3] = parenteral, weight basis; cited from earlier work
[4] = cited from earlier work; remark: listed apart in the source
[5] = intravenous, single dose of about 0.3 mg

In the case of CO[C@@]12CC[C@@]3(C[C@@H]1[C@](C)(O)C(C)(C)C)[C@H]1Cc4ccc(O)c5c4[C@@]3(CCN1CC1CC1)[C@H]2O5.Cl [Buprenorphine HCl, buprenorphine hydrochloride], the “mean duration of analgesia” value ([1]; single intramuscular or intravenous dose of 0.2 to 0.3 mg or 2 to 4 μg/kg) is listed as “six”, the Analgesic duration [2] is listed as 5 h and the “duration of analgesic action” value [2] is listed as 3 to 5 h.

For CO[C@@]12CCC3(C[C@@H]1C(C)(O)C(C)(C)C)[C@H]1Cc4ccc(O)c5c4[C@@]3(CCN1CC1CC1)[C@H]2O5 (stereo partly drawn) [Buprenorphine base, (5α,7α(S)-17-cyclopropyl-methyl)-α-(1,1-dimethylethyl)-4,5-epoxy-18,19-dihydro-3-hydroxy-6-methoxy-α-methyl-6,14-ethenomorphinan-7-methanol], the Analgesic duration [2] was 48; 48; 50 h, the “duration of analgesic action” value [2] was 48 to 50 h and the Analgesic duration ([2]; sc) was 48; 50; 48 h. The duration of action ([2]; sc) was 48 to 50 h.

In the case of CO[C@@]12CCC3(C[C@@H]1C(C)(O)C(C)(C)C)[C@H]1Cc4ccc(O)c5c4[C@@]3(CCN1CC1CC1)[C@H]2O5 (stereo partly drawn) [Buprenorphine, (5α,7α(S)-17-cyclopropyl-methyl)-α-(1,1-dimethylethyl)-4,5-epoxy-18,19-dihydro-3-hydroxy-6-methoxy-α-methyl-6,14-ethenomorphinan-7-methanol], the “analgesic potency relative to meperidine” value [3] is listed as “about 600 times”, the “analgesic potency relative to pentazocine” value [3] is listed as “about 200 times” and the Cmax ([4]; 0.4 mg sublingual dose) is listed as 0.5 ± 0.06 ng/mL. For the same molecule, the Tmax ([4]; 0.4 mg sublingual dose) was 3.5 ± 0.667 h, the systemic availability ([4]; 0.4 mg sublingual dose) was 57.7±6% and the Total plasma clearance ([4]; conscious postoperative patients) was “approximately 0.28 L/minute”. The “mean peak plasma buprenorphine concentration” value ([4]; intramuscular second 0.3-mg dose 3 hours after initial intravenous dose) was “about 3.6 ng/mL”, the plasma concentration ([4]; intramuscular second 0.3-mg dose, after about 3 hours) was “about 0.4 ng/mL” and the plasma concentration ([4]; intravenous about 0.3 mg, after about 5 minutes) was “about 9 ng/mL”. The plasma concentration ([4]; intravenous about 0.3 mg, after about 3 hours) was “about 0.4 ng/mL”, the “mean peak plasma drug concentration” value [4, 5] was “about 18 ng/mL” and the “time of peak plasma concentration” value [4, 5] was no more than 2 min. For the same molecule, the duration of action ([1]; intramuscular or intravenous injection) was 6 to 8 h.
